Reference: US20020111274A1, “1-alkyl-3-[1-(substituted phenyl) benzotriazol-6-yl] uracils” (BASF Aktiengesellschaft, priority 2000, published 2002)

Key:
Set-up in all cases: scale not given here
GLXMAW Soybean, Williams [1] = experiment: Preemergence herbicidal evaluation, GLXMAW; format: in vivo, Glycine max, (L.) Merr. cv Williams; settings: for GLXMAW herbicidal rating: preemergence; for Preemergence herbicidal rating, GLXMAW: rated four to five weeks after treatment
Method in brief: (§1)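 Compound applied preemergence as an aqueous acetone spray onto freshly planted cups, dose equivalent approx. 0.013 to 0.800 kg/ha. Evaluation by rating at weeks 4–5.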

[2] = system: IPOHE Morningglory, Ivyleaf; experiment: Postemergence herbicidal evaluation, IPOHE; format: in vivo, Ipomoea hederacea, (L.) Jacq.
Method in brief: (§2)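 Visual injury rating ~2–3 wk post-spray; replicate tests averaged. Two-week-old seedlings; foliar spray at 40 psi; 0.006–0.400 kg ai/ha in 80/20 acetone/water + 1.0% methylated seed oil.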

AMBEL Ragweed, Common [3] = experiment: Postemergence herbicidal evaluation, AMBEL; format: in vivo, Ambrosia artemisifolia, L.
Method in brief: as §2

CASOB Sicklepod [4] = experiment: Preemergence herbicidal evaluation, CASOB; format: in vivo, Cassia obtusifolia, L.; settings: for CASOB herbicidal rating: preemergence; for Preemergence herbicidal rating, CASOB: rated four to five weeks after treatment
Method in brief: as §1

[5] = system: TRZAWR Wheat, Winter, cv Riband; experiment: Preemergence herbicidal evaluation, TRZAWR; format: in vivo, Triticum aestivum; settings: for TRZAWR herbicidal rating: preemergence; for Preemergence herbicidal rating, TRZAWR: rated four to five weeks after treatment
Method in brief: as §1

ORYSAT Rice, Tebonnet [6] = experiment: Postemergence herbicidal evaluation, ORYSAT; format: in vivo, Oryza sativa, (L.)
Method in brief: as §2

ORYSAT Rice, Tebonnet [7] = experiment: Preemergence herbicidal evaluation, ORYSAT; format: in vivo, Oryza sativa, (L.); settings: for ORYSAT herbicidal rating: preemergence; for Preemergence herbicidal rating, ORYSAT: rated four to five weeks after treatment
Method in brief: as §1

ECHOG Barnyardgrass [8] = experiment: Postemergence herbicidal evaluation, ECHOG; format: in vivo, Echinochloa crus-galli, (L.) Beau
Method in brief: as §2

[9] = system: CHEAL Lambsquarters, Common; experiment: Preemergence herbicidal evaluation, CHEAL; format: in vivo, Chenopodium album, L.; settings: for CHEAL herbicidal rating: preemergence; for Preemergence herbicidal rating, CHEAL: rated four to five weeks after treatment
Method in brief: as §1

[10] = system: TRZAWR Wheat, Winter, cv Riband; experiment: Postemergence herbicidal evaluation, TRZAWR; format: in vivo, Triticum aestivum
Method in brief: as §2

GLXMAW Soybean, Williams [11] = experiment: Postemergence herbicidal evaluation, GLXMAW; format: in vivo, Glycine max, (L.) Merr. cv Williams
Method in brief: as §2

GALAP Galium [12] = experiment: Postemergence herbicidal evaluation, GALAP; format: in vivo, Galium aparine
Method in brief: as §2

ABUTH Velvetleaf [13] = experiment: Preemergence herbicidal evaluation, ABUTH; format: in vivo, Abutilon theophrasti, Medic.; settings: for ABUTH herbicidal rating: preemergence
Method in brief: as §1

AMBEL Ragweed, Common [14] = experiment: Preemergence herbicidal evaluation, AMBEL; format: in vivo, Ambrosia artemisifolia, L.; settings: for AMBEL herbicidal rating: preemergence; for Preemergence herbicidal rating, AMBEL: rated four to five weeks after treatment
Method in brief: as §1

ABUTH Velvetleaf [15] = experiment: Postemergence herbicidal evaluation, ABUTH; format: in vivo, Abutilon theophrasti, Medic.
Method in brief: as §2

SETVI Foxtail, Green [16] = experiment: Postemergence herbicidal evaluation, SETVI; format: in vivo, Setaria viridis, (L.) Beau
Method in brief: as §2

GALAP Galium [17] = experiment: Preemergence herbicidal evaluation, GALAP; format: in vivo, Galium aparine; settings: for GALAP herbicidal rating: preemergence; for Preemergence herbicidal rating, GALAP: rated four to five weeks after treatment
Method in brief: as §1

[18] = system: CHEAL Lambsquarters, Common; experiment: Postemergence herbicidal evaluation, CHEAL; format: in vivo, Chenopodium album, L.
Method in brief: as §2

CASOB Sicklepod [19] = experiment: Postemergence herbicidal evaluation, CASOB; format: in vivo, Cassia obtusifolia, L.
Method in brief: as §2

SETVI Foxtail, Green [20] = experiment: Preemergence herbicidal evaluation, SETVI; format: in vivo, Setaria viridis, (L.) Beau; settings: for SETVI herbicidal rating: preemergence; for Preemergence herbicidal rating, SETVI: rated four to five weeks after treatment
Method in brief: as §1

ZEAMX Corn, Field [21] = experiment: Postemergence herbicidal evaluation, ZEAMX; format: in vivo, Zea mays, L. (Sammel-Bezeichnung)
Method in brief: as §2

ZEAMX Corn, Field [22] = experiment: Preemergence herbicidal evaluation, ZEAMX; format: in vivo, Zea mays, L. (Sammel-Bezeichnung); settings: for ZEAMX herbicidal rating: preemergence; for Preemergence herbicidal rating, ZEAMX: rated four to five weeks after treatment
Method in brief: as §1

[23] = system: IPOHE Morningglory, Ivyleaf; experiment: Preemergence herbicidal evaluation, IPOHE; format: in vivo, Ipomoea hederacea, (L.) Jacq.; settings: for IPOHE herbicidal rating: preemergence; for Preemergence herbicidal rating, IPOHE: rated four to five weeks after treatment
Method in brief: as §1

ECHOG Barnyardgrass [24] = experiment: Preemergence herbicidal evaluation, ECHOG; format: in vivo, Echinochloa crus-galli, (L.) Beau; settings: for ECHCG herbicidal rating: preemergence; for Preemergence herbicidal rating, ECHCG: rated four to five weeks after treatment
Method in brief: as §1

[25] = 0.016 kg/ha, postemergence spray, rated about two-three weeks after treatment
[26] = 0.032 kg/ha, postemergence spray, rated about two-three weeks after treatment
[27] = 0.062 kg/ha, postemergence spray, rated about two-three weeks after treatment
[28] = rate 0.008 kg/ha, rated two - three weeks after treatment

Cn1c(C(F)(F)F)cc(=O)n(-c2cc3c(cc2F)nnn3-c2ccc(OCC(=O)O)cc2)c1=O [Example 44]
GLXMAW herbicidal rating (GLXMAW Soybean, Williams [1]; rate 0.062 kg/ha): 0.0
GLXMAW herbicidal rating (GLXMAW Soybean, Williams [1]; rate 0.125 kg/ha): 0.0
Preemergence herbicidal rating, GLXMAW (GLXMAW Soybean, Williams [1]; rate 0.016 kg/ha): 0.0
Preemergence herbicidal rating, GLXMAW (GLXMAW Soybean, Williams [1]; rate 0.032 kg/ha): 0.0
Postemergence herbicidal rating IPOHE [2, 25]: 7.0
Postemergence herbicidal rating IPOHE [2, 26]: 9.0
Postemergence herbicidal rating IPOHE [2, 27]: 9.0
Postemergence herbicidal rating IPOHE [2, 28]: 7.0
Postemergence herbicidal rating AMBEL (AMBEL Ragweed, Common [3]; [25]): 3.0
Postemergence herbicidal rating AMBEL (AMBEL Ragweed, Common [3]; [26]): 6.0
Postemergence herbicidal rating AMBEL (AMBEL Ragweed, Common [3]; [27]): 7.0
Postemergence herbicidal rating AMBEL (AMBEL Ragweed, Common [3]; [28]): 3.0
CASOB herbicidal rating (CASOB Sicklepod [4]; rate 0.062 kg/ha): 2.0
CASOB herbicidal rating (CASOB Sicklepod [4]; rate 0.125 kg/ha): 0.0
Preemergence herbicidal rating, CASOB (CASOB Sicklepod [4]; rate 0.016 kg/ha): 0.0
Preemergence herbicidal rating, CASOB (CASOB Sicklepod [4]; rate 0.032 kg/ha): 1.0
TRZAWR herbicidal rating ([5]; rate 0.062 kg/ha): 1.0
TRZAWR herbicidal rating ([5]; rate 0.125 kg/ha): 1.0
Preemergence herbicidal rating, TRZAWR ([5]; rate 0.016 kg/ha): 0.0
Preemergence herbicidal rating, TRZAWR ([5]; rate 0.032 kg/ha): 0.0
Postemergence herbicidal rating ORYSAT (ORYSAT Rice, Tebonnet [6]; [25]): 2.5
Postemergence herbicidal rating ORYSAT (ORYSAT Rice, Tebonnet [6]; [26]): 2.5
Postemergence herbicidal rating ORYSAT (ORYSAT Rice, Tebonnet [6]; [27]): 3.0
Postemergence herbicidal rating ORYSAT (ORYSAT Rice, Tebonnet [6]; [28]): 2.5
ORYSAT herbicidal rating (ORYSAT Rice, Tebonnet [7]; rate 0.062 kg/ha): 5.0
ORYSAT herbicidal rating (ORYSAT Rice, Tebonnet [7]; rate 0.125 kg/ha): 5.0
Preemergence herbicidal rating, ORYSAT (ORYSAT Rice, Tebonnet [7]; rate 0.016 kg/ha): 0.0
Preemergence herbicidal rating, ORYSAT (ORYSAT Rice, Tebonnet [7]; rate 0.032 kg/ha): 0.0
Postemergence herbicidal rating ECHCG (ECHOG Barnyardgrass [8]; [25]): 4.0
Postemergence herbicidal rating ECHCG (ECHOG Barnyardgrass [8]; [26]): 6.0
Postemergence herbicidal rating ECHCG (ECHOG Barnyardgrass [8]; [27]): 6.0
Postemergence herbicidal rating ECHCG (ECHOG Barnyardgrass [8]; [28]): 3.0
CHEAL herbicidal rating ([9]; rate 0.062 kg/ha): 9.0
CHEAL herbicidal rating ([9]; rate 0.125 kg/ha): 9.0
Preemergence herbicidal rating, CHEAL ([9]; rate 0.016 kg/ha): 9.0
Preemergence herbicidal rating, CHEAL ([9]; rate 0.032 kg/ha): 9.0
Postemergence herbicidal rating TRZAWR [10, 25]: 4.0
Postemergence herbicidal rating TRZAWR [10, 26]: 3.5
Postemergence herbicidal rating TRZAWR [10, 27]: 4.0
Postemergence herbicidal rating TRZAWR [10, 28]: 3.0
Postemergence herbicidal rating GLXMAW (GLXMAW Soybean, Williams [11]; [25]): 6.5
Postemergence herbicidal rating GLXMAW (GLXMAW Soybean, Williams [11]; [26]): 6.5
Postemergence herbicidal rating GLXMAW (GLXMAW Soybean, Williams [11]; [27]): 7.0
Postemergence herbicidal rating GLXMAW (GLXMAW Soybean, Williams [11]; [28]): 5.0
Postemergence herbicidal rating GALAP (GALAP Galium [12]; [25]): 0.0
Postemergence herbicidal rating GALAP (GALAP Galium [12]; [26]): 1.0
Postemergence herbicidal rating GALAP (GALAP Galium [12]; [27]): 2.0
Postemergence herbicidal rating GALAP (GALAP Galium [12]; [28]): 0.0
ABUTH herbicidal rating (ABUTH Velvetleaf [13]; rate 0.062 kg/ha): 7.0
ABUTH herbicidal rating (ABUTH Velvetleaf [13]; rate 0.125 kg/ha): 9.0
Preemergence herbicidal rating, ABUTH (ABUTH Velvetleaf [13]; rate 0.032 kg/ha, rated four to five weeks after treatment): 0.0
AMBEL herbicidal rating (AMBEL Ragweed, Common [14]; rate 0.062 kg/ha): 0.0
AMBEL herbicidal rating (AMBEL Ragweed, Common [14]; rate 0.125 kg/ha): 0.0
Preemergence herbicidal rating, AMBEL (AMBEL Ragweed, Common [14]; rate 0.016 kg/ha): 1.0
Preemergence herbicidal rating, AMBEL (AMBEL Ragweed, Common [14]; rate 0.032 kg/ha): 0.0
Postemergence herbicidal rating ABUTH (ABUTH Velvetleaf [15]; [25]): 9.0
Postemergence herbicidal rating ABUTH (ABUTH Velvetleaf [15]; [26]): 7.0
Postemergence herbicidal rating ABUTH (ABUTH Velvetleaf [15]; [27]): 9.0
Postemergence herbicidal rating ABUTH (ABUTH Velvetleaf [15]; [28]): 9.0
Postemergence herbicidal rating SETVI (SETVI Foxtail, Green [16]; [25]): 4.0
Postemergence herbicidal rating SETVI (SETVI Foxtail, Green [16]; [26]): 7.0
Postemergence herbicidal rating SETVI (SETVI Foxtail, Green [16]; [27]): 7.0
Postemergence herbicidal rating SETVI (SETVI Foxtail, Green [16]; [28]): 4.0
GALAP herbicidal rating (GALAP Galium [17]; rate 0.062 kg/ha): 4.0
GALAP herbicidal rating (GALAP Galium [17]; rate 0.125 kg/ha): 7.0
Preemergence herbicidal rating, GALAP (GALAP Galium [17]; rate 0.016 kg/ha): 3.0
Preemergence herbicidal rating, GALAP (GALAP Galium [17]; rate 0.032 kg/ha): 5.0
Postemergence herbicidal rating CHEAL [18, 25]: 7.0
Postemergence herbicidal rating CHEAL [18, 26]: 6.0
Postemergence herbicidal rating CHEAL [18, 27]: 9.0
Postemergence herbicidal rating CHEAL [18, 28]: 5.0
Postemergence herbicidal rating CASOB (CASOB Sicklepod [19]; [25]): 0.0
Postemergence herbicidal rating CASOB (CASOB Sicklepod [19]; [26]): 1.0
Postemergence herbicidal rating CASOB (CASOB Sicklepod [19]; [27]): 2.0
Postemergence herbicidal rating CASOB (CASOB Sicklepod [19]; [28]): 0.0
SETVI herbicidal rating (SETVI Foxtail, Green [20]; rate 0.062 kg/ha): 3.0
SETVI herbicidal rating (SETVI Foxtail, Green [20]; rate 0.125 kg/ha): 9.0
Preemergence herbicidal rating, SETVI (SETVI Foxtail, Green [20]; rate 0.016 kg/ha): 0.0
Preemergence herbicidal rating, SETVI (SETVI Foxtail, Green [20]; rate 0.032 kg/ha): 0.0
Postemergence herbicidal rating ZEAMX (ZEAMX Corn, Field [21]; [25]): 6.5
Postemergence herbicidal rating ZEAMX (ZEAMX Corn, Field [21]; [26]): 6.5
Postemergence herbicidal rating ZEAMX (ZEAMX Corn, Field [21]; [27]): 7.0
Postemergence herbicidal rating ZEAMX (ZEAMX Corn, Field [21]; [28]): 4.5
ZEAMX herbicidal rating (ZEAMX Corn, Field [22]; rate 0.062 kg/ha): 1.0
ZEAMX herbicidal rating (ZEAMX Corn, Field [22]; rate 0.125 kg/ha): 1.0
Preemergence herbicidal rating, ZEAMX (ZEAMX Corn, Field [22]; rate 0.016 kg/ha): 0.0
Preemergence herbicidal rating, ZEAMX (ZEAMX Corn, Field [22]; rate 0.032 kg/ha): 0.0
IPOHE herbicidal rating ([23]; rate 0.062 kg/ha): 0.0
IPOHE herbicidal rating ([23]; rate 0.125 kg/ha): 2.0
Preemergence herbicidal rating, IPOHE ([23]; rate 0.016 kg/ha): 0.0
Preemergence herbicidal rating, IPOHE ([23]; rate 0.032 kg/ha): 0.0
ECHCG herbicidal rating (ECHOG Barnyardgrass [24]; rate 0.062 kg/ha): 0.0
ECHCG herbicidal rating (ECHOG Barnyardgrass [24]; rate 0.125 kg/ha): 0.0
Preemergence herbicidal rating, ECHCG (ECHOG Barnyardgrass [24]; rate 0.016 kg/ha): 0.0
Preemergence herbicidal rating, ECHCG (ECHOG Barnyardgrass [24]; rate 0.032 kg/ha): 0.0
